Test results: ChEMBL document CHEMBL1649287, “Postantibiotic effect of ceftaroline against gram-positive organisms” (2009)
Values after ≈ are worked out from the molar mass of the structure shown.

Columns and labels:
Format in all cases: functional
Staphylococcus aureus [1] = assay: Antimicrobial activity against methicillin-resistant, vancomycin-resistant Staphylococcus aureus 770 assessed as time required to induce sub-MIC effect at 0.2 times MIC after 1 hr by plate counting method; conditions: Staphylococcus aureus, 770, 1 h
Staphylococcus aureus [2] = assay: Antimicrobial activity against methicillin-susceptible, vancomycin-susceptible Staphylococcus aureus ATCC 29213 assessed as post antibiotic effect at 10 times MIC after 1 hr by plate counting method; conditions: ATCC 29213, 1 h
Streptococcus pneumoniae [3] = assay: Antimicrobial activity against Penicillin-, erythromycin-resistant Streptococcus pneumoniae 37 assessed as time required to induce post antibiotic sub-MIC effect at 0.4 times MIC after 1 hr by plate counting method; conditions: Streptococcus pneumoniae, 37, 1 h
Staphylococcus aureus [4] = assay: Antimicrobial activity against methicillin-resistant, vancomycin-susceptible Staphylococcus aureus vs1 assessed as time required to induce post antibiotic sub-MIC effect at 0.2 times MIC after 1 hr by plate counting method; conditions: vs1, 1 h
Streptococcus pneumoniae [5] = assay: Antimicrobial activity against Penicillin-susceptible Streptococcus pneumoniae s502 assessed as time required to induce post antibiotic sub-MIC effect at 0.4 times MIC after 1 hr by plate counting method; conditions: s502, 1 h
Staphylococcus aureus [6] = assay: Antimicrobial activity against methicillin-resistant, vancomycin-susceptible Staphylococcus aureus vs1 assessed as time required to induce sub-MIC effect at 0.2 times MIC after 1 hr by plate counting method; conditions: vs1, 1 h
Streptococcus pneumoniae [7] = assay: Antimicrobial activity against Penicillin-susceptible Streptococcus pneumoniae ATCC 49617 assessed as time required to induce post antibiotic sub-MIC effect at 0.3 times MIC after 1 hr by plate counting method; conditions: ATCC 49617, 1 h
Streptococcus pneumoniae [8] = assay: Antimicrobial activity against Penicillin-susceptible Streptococcus pneumoniae ATCC 49617 assessed as time required to induce post antibiotic sub-MIC effect at 0.4 times MIC after 1 hr by plate counting method; conditions: ATCC 49617, 1 h
Streptococcus pneumoniae [9] = assay: Antimicrobial activity against Streptococcus pneumoniae ATCC 10813 infected in neutropenic ICR mouse assessed as post antibiotic effect at 1.56 to 100 mg/kg, sc administered 14 hrs post infection; conditions: dose mg/kg 1.56-100; route subcutaneous
Enterococcus faecalis [10] = assay: Antimicrobial activity against vancomycin-resistant Enterococcus faecalis 609 by microdilution method
Staphylococcus aureus [11] = assay: Antimicrobial activity against methicillin-susceptible, vancomycin-susceptible Staphylococcus aureus sox1 assessed as time required to induce post antibiotic sub-MIC effect at 0.3 times MIC after 1 hr by plate counting method; conditions: sox1, 1 h
Staphylococcus aureus [12] = assay: Antimicrobial activity against methicillin-susceptible, vancomycin-susceptible Staphylococcus aureus sox1 by microdilution method
Enterococcus faecalis [13] = assay: Antimicrobial activity against vancomycin-sensitive Enterococcus faecalis 20 assessed as time required to induce post antibiotic sub-MIC effect at 0.4 times MIC after 1 hr by plate counting method; conditions: Enterococcus faecalis, 20, 1 h
Staphylococcus aureus [14] = assay: Antimicrobial activity against methicillin-resistant, vancomycin-susceptible Staphylococcus aureus vs1 assessed as time required to induce post antibiotic sub-MIC effect at 0.4 times MIC after 1 hr by plate counting method; conditions: vs1, 1 h
Staphylococcus aureus [15] = assay: Antimicrobial activity against methicillin-susceptible, vancomycin-susceptible Staphylococcus aureus sox1 assessed as time required to induce sub-MIC effect at 0.2 times MIC after 1 hr by plate counting method; conditions: sox1, 1 h
Enterococcus faecalis [16] = assay: Antimicrobial activity against vancomycin-resistant Enterococcus faecalis 609 assessed as time required to induce sub-MIC effect at 0.3 times MIC after 1 hr by plate counting method; conditions: Enterococcus faecalis, 609, 1 h
Staphylococcus aureus [17] = assay: Antimicrobial activity against methicillin-resistant, vancomycin-resistant Staphylococcus aureus 770 assessed as time required to induce sub-MIC effect at 0.4 times MIC after 1 hr by plate counting method; conditions: Staphylococcus aureus, 770, 1 h
Enterococcus faecalis [18] = assay: Antimicrobial activity against vancomycin-sensitive Enterococcus faecalis 10 assessed as time required to induce post antibiotic sub-MIC effect at 0.4 times MIC after 1 hr by plate counting method; conditions: Enterococcus faecalis, 10, 1 h
Enterococcus faecalis [19] = assay: Antimicrobial activity against vancomycin-resistant Enterococcus faecalis 609 assessed as time required to induce post antibiotic sub-MIC effect at 0.4 times MIC after 1 hr by plate counting method; conditions: Enterococcus faecalis, 609, 1 h
Streptococcus pneumoniae [20] = assay: Antimicrobial activity against Penicillin-intermediate Streptococcus pneumoniae s1234 assessed as time required to induce sub-MIC effect at 0.3 times MIC after 1 hr by plate counting method
Streptococcus pneumoniae [21] = assay: Antimicrobial activity against Penicillin-susceptible Streptococcus pneumoniae ATCC 49617 assessed as time required to induce sub-MIC effect at 0.3 times MIC after 1 hr by plate counting method; conditions: ATCC 49617, 1 h
Staphylococcus aureus [22] = assay: Antimicrobial activity against methicillin-resistant, vancomycin-intermediate Staphylococcus aureus 510 by microdilution method
Streptococcus pneumoniae [23] = assay: Antimicrobial activity against Penicillin-, erythromycin-resistant Streptococcus pneumoniae 37 assessed as time required to induce sub-MIC effect at 0.2 times MIC after 1 hr by plate counting method; conditions: Streptococcus pneumoniae, 37, 1 h
Enterococcus faecalis [24] = assay: Antimicrobial activity against vancomycin-sensitive Enterococcus faecalis 10 assessed as time required to induce sub-MIC effect at 0.3 times MIC after 1 hr by plate counting method; conditions: Enterococcus faecalis, 10, 1 h
Staphylococcus aureus [25] = assay: Antimicrobial activity against methicillin-resistant, vancomycin-susceptible Staphylococcus aureus vs1 assessed as time required to induce post antibiotic sub-MIC effect at 0.3 times MIC after 1 hr by plate counting method; conditions: vs1, 1 h
Streptococcus pneumoniae [26] = assay: Antimicrobial activity against Penicillin-, erythromycin-resistant Streptococcus pneumoniae 37 assessed as post antibiotic effect at 10 times MIC after 1 hr by plate counting method; conditions: Streptococcus pneumoniae, 37, 1 h
Streptococcus pneumoniae [27] = assay: Antimicrobial activity against Penicillin-, erythromycin-resistant Streptococcus pneumoniae 37 assessed as time required to induce sub-MIC effect at 0.3 times MIC after 1 hr by plate counting method; conditions: Streptococcus pneumoniae, 37, 1 h
Enterococcus faecalis [28] = assay: Antimicrobial activity against vancomycin-sensitive Enterococcus faecalis ATCC 29212 assessed as time required to induce sub-MIC effect at 0.4 times MIC after 1 hr by plate counting method; conditions: ATCC 29212, 1 h
Staphylococcus aureus [29] = assay: Antimicrobial activity against methicillin-resistant, vancomycin-hetroresistant Staphylococcus aureus 618 assessed as time required to induce post antibiotic sub-MIC effect at 0.4 times MIC after 1 hr by plate counting method; conditions: Staphylococcus aureus, 618, 1 h
Staphylococcus aureus [30] = assay: Antimicrobial activity against methicillin-susceptible, vancomycin-susceptible Staphylococcus aureus ATCC 29213 assessed as time required to induce post antibiotic sub-MIC effect at 0.3 times MIC after 1 hr by plate counting method; conditions: ATCC 29213, 1 h
Staphylococcus aureus [31] = assay: Antimicrobial activity against methicillin-resistant, vancomycin-hetroresistant Staphylococcus aureus 618 assessed as time required to induce post antibiotic sub-MIC effect at 0.3 times MIC after 1 hr by plate counting method; conditions: Staphylococcus aureus, 618, 1 h
Staphylococcus aureus [32] = assay: Antimicrobial activity against methicillin-susceptible, vancomycin-susceptible Staphylococcus aureus ATCC 29213 assessed as time required to induce sub-MIC effect at 0.2 times MIC after 1 hr by plate counting method; conditions: ATCC 29213, 1 h
Enterococcus faecalis [33] = assay: Antimicrobial activity against vancomycin-resistant Enterococcus faecalis 266 assessed as time required to induce post antibiotic sub-MIC effect at 0.4 times MIC after 1 hr by plate counting method; conditions: Enterococcus faecalis, 266, 1 h
Enterococcus faecalis [34] = assay: Antimicrobial activity against vancomycin-sensitive Enterococcus faecalis 10 by microdilution method

What does the source list for CCO/N=C(\C(=O)N[C@@H]1C(=O)N2C(C(=O)[O-])=C(Sc3nc(-c4cc[n+](C)cc4)cs3)CS[C@H]12)c1nsc(NP(=O)(O)O)n1 [CEFTAROLINE FOSAMIL]?
time (Staphylococcus aureus [1]): 0.3 h; PAE (Staphylococcus aureus [2]): 1 h; time (Streptococcus pneumoniae [3]): 3.7 h; time (Staphylococcus aureus [4]): 2.7 h; PAE (Streptococcus pneumoniae [5]): 4.5 h; time (Staphylococcus aureus [6]): 0.4 h; PAE (Streptococcus pneumoniae [7]): 5.9 h; PAE (Streptococcus pneumoniae [8]): 7.2 h; PAE (Streptococcus pneumoniae [9]): 1.5 h; MIC (Enterococcus faecalis [10]): 1 µg/mL (≈ 1.46 µM); PAE (Staphylococcus aureus [11]): 3.6 h; MIC (Staphylococcus aureus [12]): 0.25 µg/mL (≈ 0.365 µM); PAE (Enterococcus faecalis [13]): 10.5 h; time (Staphylococcus aureus [14]): 6.7 h; PAE (Staphylococcus aureus [15]): 0.2 h; time (Enterococcus faecalis [16]): 1.4 h; time (Staphylococcus aureus [17]): 0.6 h; PAE (Enterococcus faecalis [18]): 8.5 h; time (Enterococcus faecalis [19]): 7.9 h; PAE (Streptococcus pneumoniae [20]): 0 h; PAE (Streptococcus pneumoniae [21]): 0.7 h; MIC (Staphylococcus aureus [22]): 0.5 µg/mL (≈ 0.73 µM); time (Streptococcus pneumoniae [23]): 0.5 h; PAE (Enterococcus faecalis [24]): 1.5 h; time (Staphylococcus aureus [25]): 4.7 h; PAE (Streptococcus pneumoniae [26]): 1.5 h; time (Streptococcus pneumoniae [27]): 0.5 h; PAE (Enterococcus faecalis [28]): 10 h; time (Staphylococcus aureus [29]): 2.9 h; PAE (Staphylococcus aureus [30]): 4.5 h; time (Staphylococcus aureus [31]): 2.7 h; PAE (Staphylococcus aureus [32]): 0.2 h; time (Enterococcus faecalis [33]): > 10.3 h; MIC (Enterococcus faecalis [34]): 0.5 µg/mL (≈ 0.73 µM)
